# Activity calls are given as the source filed them.
# Tests used:
# Format in all cases: functional
# SUMO-activating enzyme = SUMO-activating enzyme (Homo sapiens, UniProt Q9UBT2); assay: blockers of UBC9-mediated SUMO conjugation – biochemical, AlphaScreen, SUMOylation inhibitor project, confirmation (AID 2018)
# [1] = target: T1, Rac GTPase-activating protein 1 (Homo sapiens, UniProt Q9H0H5); assay: blockers of MgcRacGAP-driven Rac1 GTP hydrolysis – biochemical, ADP Hunter fluorescence, primary and confirmatory, confirmation (AID 624330)
# T1 sequence (Q9H0H5 whole entry): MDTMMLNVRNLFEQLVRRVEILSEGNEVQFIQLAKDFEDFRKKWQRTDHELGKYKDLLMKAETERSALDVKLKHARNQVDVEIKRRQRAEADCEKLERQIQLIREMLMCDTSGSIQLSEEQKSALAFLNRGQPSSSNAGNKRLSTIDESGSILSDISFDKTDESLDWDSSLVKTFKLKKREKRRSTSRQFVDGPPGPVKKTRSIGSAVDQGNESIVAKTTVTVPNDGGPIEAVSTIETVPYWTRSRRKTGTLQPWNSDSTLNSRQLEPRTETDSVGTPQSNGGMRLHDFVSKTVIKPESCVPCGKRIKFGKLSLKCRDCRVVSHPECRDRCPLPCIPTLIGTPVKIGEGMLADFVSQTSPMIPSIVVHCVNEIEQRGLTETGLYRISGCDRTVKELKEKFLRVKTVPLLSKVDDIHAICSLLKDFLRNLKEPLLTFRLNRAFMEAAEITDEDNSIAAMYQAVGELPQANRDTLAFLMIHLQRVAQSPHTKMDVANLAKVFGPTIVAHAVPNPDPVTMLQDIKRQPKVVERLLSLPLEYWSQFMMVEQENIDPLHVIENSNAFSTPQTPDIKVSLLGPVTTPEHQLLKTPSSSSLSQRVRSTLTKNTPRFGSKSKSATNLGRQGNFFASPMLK
# [2] = target: Protein kinase C theta type (Homo sapiens, UniProt Q04759); assay: Navigating the Kinome. Panel member name: PRKCQ
# [3] = target: T2, Serine/threonine-protein kinase D3 (Homo sapiens, UniProt O94806);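 also: determined within a kinase panel screen, with PRKCN as the panel member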
# T2 sequence (O94806 whole entry): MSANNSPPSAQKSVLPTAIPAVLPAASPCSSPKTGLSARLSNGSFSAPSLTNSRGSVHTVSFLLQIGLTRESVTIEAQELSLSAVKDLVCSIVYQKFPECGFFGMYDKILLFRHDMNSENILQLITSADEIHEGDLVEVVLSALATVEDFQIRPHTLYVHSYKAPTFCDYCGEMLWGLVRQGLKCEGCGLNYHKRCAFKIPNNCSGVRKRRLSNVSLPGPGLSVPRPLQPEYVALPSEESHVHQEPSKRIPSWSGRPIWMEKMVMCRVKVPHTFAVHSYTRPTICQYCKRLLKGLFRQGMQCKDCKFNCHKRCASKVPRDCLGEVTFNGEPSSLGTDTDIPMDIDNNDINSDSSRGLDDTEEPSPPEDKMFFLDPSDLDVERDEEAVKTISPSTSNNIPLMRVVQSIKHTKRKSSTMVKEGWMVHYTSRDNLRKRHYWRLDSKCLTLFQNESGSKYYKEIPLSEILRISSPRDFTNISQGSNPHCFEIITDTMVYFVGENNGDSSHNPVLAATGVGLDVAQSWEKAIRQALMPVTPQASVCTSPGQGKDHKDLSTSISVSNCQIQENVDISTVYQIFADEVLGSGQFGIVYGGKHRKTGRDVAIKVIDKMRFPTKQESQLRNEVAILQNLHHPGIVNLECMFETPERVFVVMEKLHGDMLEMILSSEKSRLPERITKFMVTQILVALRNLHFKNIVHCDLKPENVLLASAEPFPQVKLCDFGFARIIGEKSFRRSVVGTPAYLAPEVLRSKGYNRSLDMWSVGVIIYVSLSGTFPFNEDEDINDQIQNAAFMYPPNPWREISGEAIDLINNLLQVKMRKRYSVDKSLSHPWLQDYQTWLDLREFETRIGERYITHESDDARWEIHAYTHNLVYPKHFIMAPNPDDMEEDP
# [4] = target: Tyrosine-protein kinase BTK (Homo sapiens, UniProt Q06187)
# [5] = target: Tyrosine-protein kinase JAK3 (Homo sapiens, UniProt P52333)
# [6] = target: Glycogen synthase kinase-3 alpha (Homo sapiens, UniProt P49840);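 also: GSK3A result taken from a broad kinome-wide kinase panel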
# [7] = target: T3, Mitogen-activated protein kinase kinase kinase kinase 2 (Homo sapiens, UniProt Q12851);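 also: measured as one member of a kinome-wide kinase panel, with MAP4K2 as the panel entry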
# T3 sequence (Q12851 whole entry): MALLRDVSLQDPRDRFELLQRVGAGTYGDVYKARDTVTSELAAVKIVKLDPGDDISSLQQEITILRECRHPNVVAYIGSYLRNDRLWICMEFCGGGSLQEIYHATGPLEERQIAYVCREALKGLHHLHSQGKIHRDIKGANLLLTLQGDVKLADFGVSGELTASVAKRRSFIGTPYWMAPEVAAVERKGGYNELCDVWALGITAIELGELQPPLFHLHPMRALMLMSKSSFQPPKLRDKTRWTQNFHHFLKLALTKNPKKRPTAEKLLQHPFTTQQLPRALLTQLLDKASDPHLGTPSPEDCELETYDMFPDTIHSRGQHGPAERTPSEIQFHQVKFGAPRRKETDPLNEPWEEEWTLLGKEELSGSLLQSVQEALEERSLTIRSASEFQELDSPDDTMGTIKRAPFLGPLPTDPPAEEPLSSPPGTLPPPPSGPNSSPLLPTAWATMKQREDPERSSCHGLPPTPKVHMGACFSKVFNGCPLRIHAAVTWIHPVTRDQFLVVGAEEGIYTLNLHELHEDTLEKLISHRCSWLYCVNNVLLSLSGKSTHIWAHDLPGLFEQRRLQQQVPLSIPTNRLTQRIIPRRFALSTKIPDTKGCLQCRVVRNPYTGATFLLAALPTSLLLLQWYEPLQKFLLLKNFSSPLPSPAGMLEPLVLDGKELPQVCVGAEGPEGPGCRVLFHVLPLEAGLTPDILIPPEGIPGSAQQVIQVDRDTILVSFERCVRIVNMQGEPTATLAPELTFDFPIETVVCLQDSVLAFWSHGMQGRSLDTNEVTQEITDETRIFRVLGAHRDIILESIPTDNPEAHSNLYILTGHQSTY
# [8] = target: Platelet-derived growth factor receptor beta (Homo sapiens, UniProt P09619);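 also: value comes from a kinome panel, with PDGFRB tested as one panel member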
# [9] = target: Cyclin-dependent kinase 5 (Homo sapiens, UniProt Q00535);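 also: CDK5 measured as one member of a kinase profiling panel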
# [10] = target: Vascular endothelial growth factor receptor 1 (Homo sapiens, UniProt P17948);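 also: measured within a kinome-wide profiling panel, FLT1 as the panel member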
# [11] = target: Mitogen-activated protein kinase kinase kinase kinase 4 (Homo sapiens, UniProt O95819)
# [12] = target: Dual specificity tyrosine-phosphorylation-regulated kinase 1A (Homo sapiens, UniProt Q13627);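 also: measured against DYRK1A as one member of a broad kinome profiling panel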
# Chain of Mitogen-activated protein kinase kinase kinase kinase 4 (O95819 whole entry): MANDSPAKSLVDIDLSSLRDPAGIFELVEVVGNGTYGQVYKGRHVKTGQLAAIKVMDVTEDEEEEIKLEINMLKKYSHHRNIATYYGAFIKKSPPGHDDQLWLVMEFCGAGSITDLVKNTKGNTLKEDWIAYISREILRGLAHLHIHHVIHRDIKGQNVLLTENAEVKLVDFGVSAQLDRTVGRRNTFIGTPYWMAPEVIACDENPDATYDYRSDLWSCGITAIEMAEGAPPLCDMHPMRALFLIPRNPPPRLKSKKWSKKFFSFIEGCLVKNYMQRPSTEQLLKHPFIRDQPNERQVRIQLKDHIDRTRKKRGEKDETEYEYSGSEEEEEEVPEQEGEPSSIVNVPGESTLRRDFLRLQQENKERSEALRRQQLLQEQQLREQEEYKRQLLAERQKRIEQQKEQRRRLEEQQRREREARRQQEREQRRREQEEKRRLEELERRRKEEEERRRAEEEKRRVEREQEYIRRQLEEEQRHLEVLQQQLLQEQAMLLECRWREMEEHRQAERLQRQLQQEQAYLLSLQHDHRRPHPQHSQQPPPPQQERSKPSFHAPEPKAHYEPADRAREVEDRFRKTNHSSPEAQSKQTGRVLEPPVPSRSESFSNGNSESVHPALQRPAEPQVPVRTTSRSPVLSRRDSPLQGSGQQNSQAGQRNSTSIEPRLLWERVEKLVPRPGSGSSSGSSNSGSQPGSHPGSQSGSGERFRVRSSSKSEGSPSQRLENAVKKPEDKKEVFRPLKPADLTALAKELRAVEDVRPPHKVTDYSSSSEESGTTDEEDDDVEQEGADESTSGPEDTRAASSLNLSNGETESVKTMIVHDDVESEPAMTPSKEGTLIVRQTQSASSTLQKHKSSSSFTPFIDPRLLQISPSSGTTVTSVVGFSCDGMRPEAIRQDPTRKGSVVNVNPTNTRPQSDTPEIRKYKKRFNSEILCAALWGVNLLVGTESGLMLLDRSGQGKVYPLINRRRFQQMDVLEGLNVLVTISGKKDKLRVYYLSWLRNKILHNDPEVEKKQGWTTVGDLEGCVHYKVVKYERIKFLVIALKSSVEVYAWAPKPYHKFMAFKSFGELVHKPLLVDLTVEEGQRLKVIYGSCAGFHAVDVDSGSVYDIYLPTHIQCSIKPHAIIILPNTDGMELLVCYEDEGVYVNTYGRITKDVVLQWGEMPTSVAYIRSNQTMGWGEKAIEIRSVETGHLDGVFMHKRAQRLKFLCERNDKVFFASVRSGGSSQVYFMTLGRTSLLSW
# Chain of Glycogen synthase kinase-3 alpha (P49840 whole entry): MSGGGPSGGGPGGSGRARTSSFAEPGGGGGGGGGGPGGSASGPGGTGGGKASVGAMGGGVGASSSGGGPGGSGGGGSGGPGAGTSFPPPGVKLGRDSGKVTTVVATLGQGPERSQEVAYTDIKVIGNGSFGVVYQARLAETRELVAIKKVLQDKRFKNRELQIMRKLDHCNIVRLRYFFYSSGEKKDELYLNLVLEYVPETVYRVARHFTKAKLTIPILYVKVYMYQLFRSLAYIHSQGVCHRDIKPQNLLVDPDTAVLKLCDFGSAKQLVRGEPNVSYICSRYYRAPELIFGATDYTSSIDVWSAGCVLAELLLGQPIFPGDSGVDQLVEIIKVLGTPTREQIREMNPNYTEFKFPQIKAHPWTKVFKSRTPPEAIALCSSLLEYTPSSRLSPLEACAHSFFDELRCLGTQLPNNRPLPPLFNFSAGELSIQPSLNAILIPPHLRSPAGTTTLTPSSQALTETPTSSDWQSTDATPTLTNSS
# Chain of Protein kinase C theta type (Q04759 whole entry): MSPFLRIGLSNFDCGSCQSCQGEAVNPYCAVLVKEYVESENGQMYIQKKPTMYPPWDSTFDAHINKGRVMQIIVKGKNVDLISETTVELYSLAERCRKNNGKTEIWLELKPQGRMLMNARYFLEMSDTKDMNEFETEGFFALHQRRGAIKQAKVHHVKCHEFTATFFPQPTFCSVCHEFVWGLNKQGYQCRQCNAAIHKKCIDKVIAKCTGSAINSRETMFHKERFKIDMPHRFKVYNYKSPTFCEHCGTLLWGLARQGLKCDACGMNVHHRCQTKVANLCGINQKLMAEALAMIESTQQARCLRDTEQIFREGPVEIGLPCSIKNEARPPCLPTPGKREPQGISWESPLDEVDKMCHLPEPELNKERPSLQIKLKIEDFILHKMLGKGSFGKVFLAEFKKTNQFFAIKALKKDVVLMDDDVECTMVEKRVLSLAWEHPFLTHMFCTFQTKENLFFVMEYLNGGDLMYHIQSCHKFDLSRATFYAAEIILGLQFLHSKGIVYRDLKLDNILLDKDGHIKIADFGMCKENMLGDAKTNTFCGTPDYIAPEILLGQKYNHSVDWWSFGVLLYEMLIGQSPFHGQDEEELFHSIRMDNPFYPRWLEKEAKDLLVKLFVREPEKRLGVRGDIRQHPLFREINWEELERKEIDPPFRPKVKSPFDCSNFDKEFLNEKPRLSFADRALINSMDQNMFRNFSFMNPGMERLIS
# Chain of Cyclin-dependent kinase 5 (Q00535 whole entry): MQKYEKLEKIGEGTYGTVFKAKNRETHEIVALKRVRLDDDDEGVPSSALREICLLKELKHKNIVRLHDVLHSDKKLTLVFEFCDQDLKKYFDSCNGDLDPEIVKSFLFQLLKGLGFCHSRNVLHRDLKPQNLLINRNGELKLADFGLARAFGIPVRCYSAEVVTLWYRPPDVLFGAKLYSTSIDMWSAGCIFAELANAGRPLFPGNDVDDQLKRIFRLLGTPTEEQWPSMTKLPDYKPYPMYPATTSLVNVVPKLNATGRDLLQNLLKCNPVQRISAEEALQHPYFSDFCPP
# Chain of Vascular endothelial growth factor receptor 1 (P17948 whole entry): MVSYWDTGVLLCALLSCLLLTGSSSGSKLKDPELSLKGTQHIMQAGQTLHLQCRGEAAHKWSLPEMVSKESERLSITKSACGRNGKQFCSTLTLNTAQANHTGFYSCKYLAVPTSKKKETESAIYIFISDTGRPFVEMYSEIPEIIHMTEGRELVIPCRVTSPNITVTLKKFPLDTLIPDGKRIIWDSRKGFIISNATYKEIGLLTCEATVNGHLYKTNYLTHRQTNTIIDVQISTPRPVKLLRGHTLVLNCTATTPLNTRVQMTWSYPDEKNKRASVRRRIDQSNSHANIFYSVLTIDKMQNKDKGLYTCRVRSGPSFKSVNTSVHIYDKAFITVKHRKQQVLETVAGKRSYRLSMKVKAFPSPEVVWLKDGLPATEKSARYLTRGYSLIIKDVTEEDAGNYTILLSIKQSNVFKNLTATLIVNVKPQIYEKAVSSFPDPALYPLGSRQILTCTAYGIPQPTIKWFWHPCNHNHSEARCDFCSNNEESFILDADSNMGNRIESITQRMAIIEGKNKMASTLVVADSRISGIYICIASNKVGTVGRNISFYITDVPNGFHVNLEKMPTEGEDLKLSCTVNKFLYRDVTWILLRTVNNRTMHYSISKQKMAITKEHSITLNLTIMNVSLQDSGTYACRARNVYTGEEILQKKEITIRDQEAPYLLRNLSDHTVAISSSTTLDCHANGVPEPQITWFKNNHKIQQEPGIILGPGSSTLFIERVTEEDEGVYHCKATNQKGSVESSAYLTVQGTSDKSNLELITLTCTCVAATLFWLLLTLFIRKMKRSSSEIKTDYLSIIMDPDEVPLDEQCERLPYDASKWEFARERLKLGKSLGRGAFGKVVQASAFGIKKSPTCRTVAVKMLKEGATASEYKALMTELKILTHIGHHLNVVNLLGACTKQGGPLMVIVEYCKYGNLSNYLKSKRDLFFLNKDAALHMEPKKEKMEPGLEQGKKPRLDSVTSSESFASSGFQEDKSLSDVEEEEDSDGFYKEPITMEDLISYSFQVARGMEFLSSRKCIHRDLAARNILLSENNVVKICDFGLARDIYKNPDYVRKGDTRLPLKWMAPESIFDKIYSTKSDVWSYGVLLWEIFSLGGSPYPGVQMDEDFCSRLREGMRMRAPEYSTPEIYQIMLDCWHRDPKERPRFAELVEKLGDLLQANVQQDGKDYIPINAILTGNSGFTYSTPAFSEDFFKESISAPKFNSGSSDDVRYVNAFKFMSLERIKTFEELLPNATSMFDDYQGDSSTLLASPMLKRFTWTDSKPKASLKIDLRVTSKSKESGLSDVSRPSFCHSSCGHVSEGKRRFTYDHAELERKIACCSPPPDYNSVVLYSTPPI
# Chain of SUMO-activating enzyme (Q9UBE0 whole entry): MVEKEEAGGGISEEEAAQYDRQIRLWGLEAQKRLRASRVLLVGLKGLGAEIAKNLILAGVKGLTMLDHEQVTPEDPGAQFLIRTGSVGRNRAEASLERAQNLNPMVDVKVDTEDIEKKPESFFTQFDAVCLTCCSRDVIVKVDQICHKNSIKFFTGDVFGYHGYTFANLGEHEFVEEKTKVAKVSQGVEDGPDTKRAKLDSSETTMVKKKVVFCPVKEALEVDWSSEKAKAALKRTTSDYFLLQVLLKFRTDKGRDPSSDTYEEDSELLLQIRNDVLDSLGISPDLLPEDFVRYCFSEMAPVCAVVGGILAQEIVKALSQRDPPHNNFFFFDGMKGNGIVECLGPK
# Chain of SUMO-activating enzyme (Q9UBT2 whole entry): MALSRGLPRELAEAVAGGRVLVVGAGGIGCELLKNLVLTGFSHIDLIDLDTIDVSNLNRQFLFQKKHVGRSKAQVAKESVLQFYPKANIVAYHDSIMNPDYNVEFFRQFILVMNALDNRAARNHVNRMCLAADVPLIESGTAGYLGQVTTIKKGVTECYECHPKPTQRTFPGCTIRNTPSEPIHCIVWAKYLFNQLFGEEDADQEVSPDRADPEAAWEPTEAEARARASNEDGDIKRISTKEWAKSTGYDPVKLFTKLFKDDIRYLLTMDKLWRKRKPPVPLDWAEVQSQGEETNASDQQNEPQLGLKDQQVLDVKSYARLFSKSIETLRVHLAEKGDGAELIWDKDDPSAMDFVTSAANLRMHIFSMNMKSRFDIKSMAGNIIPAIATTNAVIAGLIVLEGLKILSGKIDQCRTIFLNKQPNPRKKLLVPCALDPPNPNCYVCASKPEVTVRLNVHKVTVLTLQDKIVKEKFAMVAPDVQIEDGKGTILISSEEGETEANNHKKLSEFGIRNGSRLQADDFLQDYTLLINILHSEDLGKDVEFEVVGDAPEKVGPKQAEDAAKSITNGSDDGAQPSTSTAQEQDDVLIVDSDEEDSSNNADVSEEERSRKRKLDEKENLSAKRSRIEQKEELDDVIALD
Structure (SMILES),Ki [2],Ki [3],Ki [6],Ki [7],Ki [9],Ki [10],Ki [11],Ki [12],IC50 [1],also measured
Oc1nc(Nc2ccc(F)cc2)cc2ccccc12,–,–,–,–,–,–,–,–,–,IC50 (SUMO-activating enzyme): 1120 nM (active)
COc1cc2cc(NC(C)=O)cc(NCc3ccccc3)c2cc1OC,–,–,–,–,–,–,–,–,49600 nM (active),–
O=C1Nc2cc(-c3ccc(O)cc3)ccc2C1=Cc1ccc[nH]1,316 nM (active),> 3980 nM (inactive),631 nM (active),31.6 nM (active),> 3160 nM (inactive),20 nM (active),20 nM (active),> 2000 nM (inactive),–,Ki [4]: > 6310 nM (inactive); Ki [5]: 20 nM (active)
CCN(CC)CCOc1ccc2c(c1)C(=NNC(=O)c1ccccn1)c1cc(OCCN(CC)CC)ccc1-2,–,–,–,–,–,–,–,–,31300 nM (active),–
CN(C)c1cc(N/N=C\c2ccccc2)nc(N(C)C)n1,–,–,–,–,–,–,–,–,–,IC50 (SUMO-activating enzyme): 1600 nM (active)
O=C(O)c1ccc2c(c1)[C@@H]1C=CC[C@@H]1[C@H](c1ccccn1)N2,–,–,–,–,–,–,–,–,360000 nM (active),–

# The next lines start with results.
Ki [2],Ki [3],Ki [6],Ki [7],Ki [9],Ki [10],Ki [11],Ki [12],Structure (SMILES),IC50 [1],also measured
3.98 nM (active),15.8 nM (active),1.26 nM (active),15.8 nM (active),0.631 nM (active),0.631 nM (active),5.01 nM (active),0.398 nM (active),NC(COc1cncc(-c2ccc3c(c2)C(=Cc2ccc[nH]2)C(=O)N3)c1)Cc1ccccc1 (stereo not given),–,Ki [4]: 3980 nM (active); Ki [5]: 20 nM (active); Ki [8]: 3.16 nM (active)
63100 nM (active),63100 nM (active),15800 nM (active),31600 nM (active),25100 nM (active),79400 nM (active),79400 nM (active),39800 nM (active),O=C1Cc2cc(-c3ccccc3)cnc2N1,–,Ki [8]: 50100 nM (active)
